Here are results for 7 compounds from US20160271263A1 (Novo Nordisk A/S, priority 2010, published 2016).

Numbered stars: 1 amine (or outer) side, 2 acyl side, 3 side chain; on linkers, the order of the positions; unused ones are H or OH. Side chains are listed from the residue outwards. Peptide text beside a SMILES is read from it. * marks the point of attachment. C18 diacid = O=C(O)CCCCCCCCCCCCCCCCC(=O)*; γGlu = O=C(O)[C@H](CCC(=O)[*:2])N[*:1]; AEEA = NCCOCCOCC(=O)O

Chain of glucagon receptor (P47871 26-477): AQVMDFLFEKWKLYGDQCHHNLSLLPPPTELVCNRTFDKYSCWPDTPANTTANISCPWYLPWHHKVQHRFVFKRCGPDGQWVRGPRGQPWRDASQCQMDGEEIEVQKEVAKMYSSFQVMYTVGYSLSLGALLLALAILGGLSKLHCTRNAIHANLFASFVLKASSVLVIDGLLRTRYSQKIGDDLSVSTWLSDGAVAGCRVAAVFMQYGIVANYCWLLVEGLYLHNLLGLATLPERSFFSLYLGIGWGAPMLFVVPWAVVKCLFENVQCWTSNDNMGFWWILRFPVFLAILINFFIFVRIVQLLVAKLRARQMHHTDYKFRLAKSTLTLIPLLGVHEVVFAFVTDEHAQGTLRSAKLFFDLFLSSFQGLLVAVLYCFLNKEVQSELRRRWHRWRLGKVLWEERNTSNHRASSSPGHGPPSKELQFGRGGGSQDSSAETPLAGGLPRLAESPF

The test has as its target glucagon receptor (Homo sapiens, UniProt P47871). Put plainly: cell-based.
In the case of `CC(C)C[C@H](NC(=O)[C@H](Cc1ccc(O)cc1)NC(=O)[C@H](CCCCN)NC(=O)[C@H](CO)NC(=O)[C@H](Cc1ccc(O)cc1)NC(=O)[C@H](CC(=O)O)NC(=O)[C@H](CO)NC(=O)[C@@H](NC(=O)[C@H](Cc1ccccc1)NC(=O)[C@@H](NC(=O)CNC(=O)[C@H](CCC(N)=O)NC(=O)[C@H](CO)NC(=O)[C@@H](N)Cc1c[nH]cn1)[C@@H](C)O)[C@@H](C)O)C(=O)N[C@@H](CC(=O)O)C(=O)N[C@@H](CO)C(=O)N[C@@H](CCCCN)C(=O)N[C@@H](CCCCN)C(=O)N[C@@H](C)C(=O)N[C@@H](CCC(N)=O)C(=O)N[C@@H](CCC(=O)O)C(=O)N[C@@H](Cc1ccccc1)C(=O)N[C@H](C(=O)N[C@@H](CCCCNC(=O)COCCOCCNC(=O)COCCOCCNC(=O)CC[C@H](NC(=O)CCCCCCCCCCCCCCCCC(=O)O)C(=O)O)C(=O)N[C@@H](Cc1c[nH]c2ccccc12)C(=O)N[C@@H](CC(C)C)C(=O)N[C@@H](CC(C)C)C(=O)N[C@@H](CO)C(=O)N[C@H](C(=O)O)[C@@H](C)O)C(C)C` [Example 55, N^ε24-([2-[2-[2-[[2-[2-[2-[[(4S)-5-hydroxy-4-[(18-hydroxy-18-oxooctadecanoyl)amino]-5-oxopentanoyl]amino]ethoxy]ethoxy]acetyl]amino]ethoxy]ethoxy]acetyl]) [Lys^17,Lys^18,Glu^21,Lys^24,Leu^27, Ser^28] Glucagon] (H-HSQGTFTSDYSKYLDSKKAQEFVK([AEEA-AEEA-γGlu-C18 diacid])WLLST-OH; N-terminus and C-terminus assumed), it took 0.009 nM to reach a half-maximal effect (EC50).
The same measure for `CC(C)C[C@H](NC(=O)[C@H](Cc1ccc(O)cc1)NC(=O)[C@H](CCCCN)NC(=O)[C@H](CO)NC(=O)[C@H](Cc1ccc(O)cc1)NC(=O)[C@H](CC(=O)O)NC(=O)[C@H](CO)NC(=O)[C@@H](NC(=O)[C@H](Cc1ccccc1)NC(=O)[C@@H](NC(=O)CNC(=O)[C@H](CCC(N)=O)NC(=O)[C@H](CO)NC(=O)[C@@H](N)Cc1c[nH]cn1)[C@@H](C)O)[C@@H](C)O)C(=O)N[C@@H](CC(=O)O)C(=O)N[C@@H](CO)C(=O)N[C@@H](CCCNC(=N)N)C(=O)N[C@@H](CCCNC(=N)N)C(=O)N[C@@H](C)C(=O)N[C@@H](CCC(N)=O)C(=O)N[C@@H](CC(=O)O)C(=O)N[C@@H](Cc1ccccc1)C(=O)N[C@H](C(=O)N[C@@H](CCC(N)=O)C(=O)N[C@@H](Cc1c[nH]c2ccccc12)C(=O)N[C@@H](CC(C)C)C(=O)N[C@@H](CCCCNC(=O)CC[C@H](NC(=O)CC[C@H](NC(=O)COCCOCCNC(=O)COCCOCCNC(=O)CC[C@H](NC(=O)CCCCCCCCCCCCCCCCC(=O)O)C(=O)O)C(=O)O)C(=O)O)C(=O)N[C@@H](CC(N)=O)C(=O)N1CCC[C@H]1C(=O)O)C(C)C` [Example 85, N^ε27-[(4S)-4-carboxy-4-[[(4S)-4-carboxy-4-[[2-[2-[2-[[2-[2-[2-[[(4S)-4-carboxy-4-(17-carboxyheptadecanoylamino)butanoyl]amino]ethoxy]ethoxy]acetyl]amino]ethoxy]ethoxy]acetyl]amino]butanoyl]amino]butanoyl]-[Lys^27,Pro^29]-Glucagon]: 1.17 nM; for `CC(C)C[C@H](NC(=O)[C@H](Cc1ccc(O)cc1)NC(=O)[C@H](CCCNC(=N)N)NC(=O)[C@H](CO)NC(=O)[C@H](Cc1ccc(O)cc1)NC(=O)[C@H](CC(=O)O)NC(=O)[C@H](CO)NC(=O)[C@@H](NC(=O)[C@H](Cc1ccccc1)NC(=O)[C@@H](NC(=O)CNC(=O)[C@H](CCC(N)=O)NC(=O)[C@H](CO)NC(=O)[C@@H](N)Cc1c[nH]cn1)[C@@H](C)O)[C@@H](C)O)C(=O)N[C@@H](CC(=O)O)C(=O)N[C@@H](CO)C(=O)N[C@@H](CCCNC(=N)N)C(=O)N[C@@H](CCCNC(=N)N)C(=O)N[C@@H](C)C(=O)N[C@@H](CCC(N)=O)C(=O)N[C@@H](CC(=O)O)C(=O)N[C@@H](Cc1ccccc1)C(=O)N[C@H](C(=O)N[C@@H](CCCCNC(=O)COCCOCCNC(=O)COCCOCCNC(=O)CC[C@H](NC(=O)CCCCCCCCCCCCCCCCC(=O)O)C(=O)O)C(=O)N[C@@H](Cc1c[nH]c2ccccc12)C(=O)N[C@@H](CC(C)C)C(=O)N[C@@H](CC(C)C)C(=O)N[C@@H](CC(N)=O)C(=O)N[C@H](C(=O)O)[C@@H](C)O)C(C)C` [Example 47] (H-HSQGTFTSDYSRYLDSRRAQDFVK([AEEA-AEEA-γGlu-C18 diacid])WLLNT-OH; N-terminus and C-terminus assumed): 0.109 nM; for `CC(C)C[C@H](NC(=O)[C@H](Cc1ccc(O)cc1)NC(=O)[C@H](CCCCN)NC(=O)[C@H](CO)NC(=O)[C@H](Cc1ccc(O)cc1)NC(=O)[C@H](CC(=O)O)NC(=O)[C@H](CO)NC(=O)[C@@H](NC(=O)[C@H](Cc1ccccc1)NC(=O)[C@@H](NC(=O)CNC(=O)[C@H](CCC(N)=O)NC(=O)[C@H](CO)NC(=O)[C@@H](N)Cc1c[nH]cn1)[C@@H](C)O)[C@@H](C)O)C(=O)N[C@@H](CC(=O)O)C(=O)N[C@@H](CO)C(=O)N[C@@H](CCCNC(=N)N)C(=O)N[C@@H](CCCNC(=N)N)C(=O)N[C@@H](C)C(=O)N[C@@H](CCC(N)=O)C(=O)N[C@@H](CC(=O)O)C(=O)N[C@@H](Cc1ccccc1)C(=O)N[C@H](C(=O)N[C@@H](CCC(N)=O)C(=O)N[C@@H](Cc1c[nH]c2ccccc12)C(=O)N[C@@H](CC(C)C)C(=O)N[C@@H](CC(C)C)C(=O)N[C@@H](CCCCNC(=O)CC[C@H](NC(=O)CC[C@H](NC(=O)CC[C@H](NC(=O)CCCCCCCCCCCCCCCCC(=O)O)C(=O)O)C(=O)O)C(=O)O)C(=O)N[C@H](C(=O)O)[C@@H](C)O)C(C)C` [Example 79, N^ε28-[(4S)-4-carboxy-4-[[(4S)-4-carboxy-4-[[(4S)-4-carboxy-4-(17-carboxyheptadecanoylamino)butanoyl]amino]butanoyl]amino]butanoyl]-[Leu^27,Lys^28]-Glucagon]: 0.141 nM.
The same measure for `CC(C)C[C@H](NC(=O)[C@H](Cc1ccc(O)cc1)NC(=O)[C@H](CCCCN)NC(=O)[C@H](CO)NC(=O)[C@H](Cc1ccc(O)cc1)NC(=O)[C@H](CC(=O)O)NC(=O)[C@H](CO)NC(=O)[C@@H](NC(=O)[C@H](Cc1ccccc1)NC(=O)[C@@H](NC(=O)CNC(=O)[C@H](CCC(N)=O)NC(=O)[C@H](CO)NC(=O)[C@@H](N)Cc1c[nH]cn1)[C@@H](C)O)[C@@H](C)O)C(=O)N[C@@H](CC(=O)O)C(=O)N[C@@H](CO)C(=O)N[C@@H](CCCCN)C(=O)N[C@@H](C)C(=O)N[C@@H](C)C(=O)N[C@@H](CCC(N)=O)C(=O)N[C@@H](CCC(=O)O)C(=O)N[C@@H](Cc1ccccc1)C(=O)N[C@H](C(=O)N[C@@H](CCCCNC(=O)COCCOCCNC(=O)COCCOCCNC(=O)CC[C@H](NC(=O)CCCCCCCCCCCCCCCCC(=O)O)C(=O)O)C(=O)N[C@@H](Cc1c[nH]c2ccccc12)C(=O)N[C@@H](CC(C)C)C(=O)N[C@@H](CC(C)C)C(=O)N[C@@H](CC(N)=O)C(=O)N[C@H](C(N)=O)[C@@H](C)O)C(C)C` [Example 37, N^ε24-([2-[2-[2-[[2-[2-[2-[[(4S)-5-hydroxy-4-[(18-hydroxy-18-oxooctadecanoyl)amino]-5-oxopentanoyl]amino]ethoxy]ethoxy]acetyl]amino]ethoxy]ethoxy]acetyl])[Lys^17, Ala^18,Glu^21, Lys^24, Leu^27] Glucagon peptide amide] (H-HSQGTFTSDYSKYLDSKAAQEFVK([AEEA-AEEA-γGlu-C18 diacid])WLLNT-NH2; N-terminus assumed): 0.033 nM.
For `CC(C)C[C@H](NC(=O)[C@H](Cc1ccc(O)cc1)NC(=O)[C@H](CCCCN)NC(=O)[C@H](CO)NC(=O)[C@H](Cc1ccc(O)cc1)NC(=O)[C@H](CC(=O)O)NC(=O)[C@H](CO)NC(=O)[C@@H](NC(=O)[C@H](Cc1ccccc1)NC(=O)[C@@H](NC(=O)CNC(=O)[C@H](CCC(N)=O)NC(=O)[C@H](CO)NC(=O)[C@@H](N)Cc1c[nH]cn1)[C@@H](C)O)[C@@H](C)O)C(=O)N[C@@H](CC(=O)O)C(=O)N[C@@H](CO)C(=O)N[C@@H](CCCNC(=N)N)C(=O)N[C@@H](CCCNC(=N)N)C(=O)N[C@@H](C)C(=O)N[C@@H](CCC(N)=O)C(=O)N[C@@H](CC(=O)O)C(=O)N[C@@H](Cc1ccccc1)C(=O)N[C@H](C(=O)N[C@@H](CCC(N)=O)C(=O)N[C@@H](CCCCNC(=O)COCCOCCNC(=O)COCCOCCNC(=O)CC[C@H](NC(=O)CCCCCCCCCCCCCCCCC(=O)O)C(=O)O)C(=O)N[C@@H](CC(C)C)C(=O)N[C@@H](CC(C)C)C(=O)N[C@@H](CC(N)=O)C(=O)N[C@H](C(=O)O)[C@@H](C)O)C(C)C` [Example 7] the value was 0.155 nM; for `CC(C)C[C@H](NC(=O)[C@H](Cc1ccc(O)cc1)NC(=O)[C@H](CCCCN)NC(=O)[C@H](CO)NC(=O)[C@H](Cc1ccc(O)cc1)NC(=O)[C@H](CC(=O)O)NC(=O)[C@H](CO)NC(=O)[C@@H](NC(=O)[C@H](Cc1ccccc1)NC(=O)[C@@H](NC(=O)CNC(=O)[C@H](CCC(N)=O)NC(=O)[C@H](CO)NC(=O)[C@@H](N)Cc1c[nH]cn1)[C@@H](C)O)[C@@H](C)O)C(=O)N[C@@H](CC(=O)O)C(=O)N[C@@H](CO)C(=O)N[C@@H](CCCCN)C(=O)N[C@@H](CCCNC(=N)N)C(=O)N[C@@H](C)C(=O)N[C@@H](CCC(N)=O)C(=O)N[C@@H](CCC(=O)O)C(=O)N[C@@H](Cc1ccccc1)C(=O)N[C@H](C(=O)N[C@@H](CCC(N)=O)C(=O)N[C@@H](CCCCNC(=O)COCCOCCNC(=O)COCCOCCNC(=O)CC[C@H](NC(=O)CCCCCCCCCCCCCCCCC(=O)O)C(=O)O)C(=O)N[C@@H](CC(C)C)C(=O)N[C@@H](CC(C)C)C(=O)N[C@@H](CC(N)=O)C(=O)N[C@H](C(N)=O)[C@@H](C)O)C(C)C` [Example 44, N^ε25 ([2-[2-[2-[[2-[2-[2-[[(4S)-5-hydroxy-4-[(18-hydroxy-18-oxooctadecanoyl)amino]-5-oxopentanoyl]amino]ethoxy]ethoxy]acetyl]amino]ethoxy]ethoxy]acetyl]) [Lys^17, Glu^21, Lys^25 Leu^27] Glucagon peptide amide] (H-HSQGTFTSDYSKYLDSKRAQEFVQK([AEEA-AEEA-γGlu-C18 diacid])LLNT-NH2; N-terminus assumed), 0.012 nM.
